The values below come from US8795973B2, “Methods for identifying inhibitors of mannan-binding lectin associated serine protease (MASP) proteins and uses thereof” (University of Leceister, priority 2010, dated 2014).

Values joined by “and” are separate entries in the source; they are usually repeats but may differ in a detail not shown here. Identical values can stand only once.

For one experiment, the target named is T1, MASP-1 CUB2 (Rattus norvegicus, UniProt Q8CHN8).
T1 construct: MASP-1 CUB2 (residues E165-A277 of the mature polypeptide, isoform 1); made in house; host or cells: E. coli BL21 DE3
T1 sequence (Q8CHN8 189-301): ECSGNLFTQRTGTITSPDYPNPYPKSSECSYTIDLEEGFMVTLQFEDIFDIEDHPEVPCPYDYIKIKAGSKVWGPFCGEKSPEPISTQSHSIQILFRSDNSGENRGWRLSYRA
The experiment in a line: Isothermal titration calorimetry of Ca2+ binding to MASP-1 CUB2. Conditions: ITC, two independent experiments. As for the experimental part:
The CUB2 domain was made calcium free by EDTA treatment and dialyzed extensively into 50 mM Tris/HCl, pH 7.4 containing 150 mM NaCl. Freshly prepared 2 mM CaCl2 in the same batch of assay buffer was titrated into CUB2 domain (114 μM) in the cell of a VP-isothermal titration calorimeter (Microcal) equilibrated at 25° C. The data were fitted to a 1:1 binding model using the Origin software supplied by the manufacturer, after subtraction of the heats of dilution of the calcium. Because binding was weak, the experiment was carried out under low ‘c-value’ conditions (where the concentration of the protein in the cell is lower than that of the KD).

Experiment [1] concerns the target T2, MASP-1 binding to immobilized MBL (Rattus norvegicus, UniProt Q8CHN8, H450D/I451D/K449D/R453K/S452D).
T2 construct: made in house
T2 sequence (Q8CHN8 25-704 K449D/H450D/I451D/S452D/R453K): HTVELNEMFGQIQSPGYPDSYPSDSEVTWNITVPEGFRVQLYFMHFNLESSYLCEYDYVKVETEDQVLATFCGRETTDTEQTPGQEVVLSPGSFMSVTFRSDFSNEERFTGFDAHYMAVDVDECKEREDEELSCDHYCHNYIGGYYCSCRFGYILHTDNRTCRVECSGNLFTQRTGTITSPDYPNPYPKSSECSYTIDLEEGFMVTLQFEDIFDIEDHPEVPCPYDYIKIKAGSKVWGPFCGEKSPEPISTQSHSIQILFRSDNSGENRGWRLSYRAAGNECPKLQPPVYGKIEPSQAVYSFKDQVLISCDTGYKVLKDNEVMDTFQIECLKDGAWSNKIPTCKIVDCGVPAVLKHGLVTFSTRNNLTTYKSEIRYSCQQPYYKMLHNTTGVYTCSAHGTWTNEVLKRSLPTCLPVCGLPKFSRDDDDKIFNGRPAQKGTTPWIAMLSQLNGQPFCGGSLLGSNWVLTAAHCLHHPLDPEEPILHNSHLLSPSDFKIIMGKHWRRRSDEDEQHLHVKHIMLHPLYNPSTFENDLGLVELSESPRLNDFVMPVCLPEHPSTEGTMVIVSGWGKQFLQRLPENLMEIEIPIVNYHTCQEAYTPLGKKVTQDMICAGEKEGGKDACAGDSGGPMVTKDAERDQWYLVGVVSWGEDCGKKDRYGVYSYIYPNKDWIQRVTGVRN
The experiment in a line: Surface plasmon resonance inhibition of MASP-1 binding to immobilized MBL. The conditions noted are these: for Inhibition of MBL/MASP-1 binding (in words): full-length MBL/MASP-1 complexes. As for the experimental part: Rat MBL-A (referred to as MBL throughout) was produced as described previously. (Wallis and Drickamer, supra (1999)). MASP-1ent (referred to as MASP-1) is a modified form of rat MASP-1 in which the zymogen cleavage site has been replaced by an enterokinase recognition site (DDDDK; SEQ ID NO: 4). […] (Chen and Wallis (2004)). […] (Persikov et al., J Biol Chem 280:19343-19349 (2005)).
MBL (0.025 mg/ml) was immobilized onto the surface of a GLM sensor chip (˜10,000 response units) at pH 4.5, using amine-coupling chemistry. Binding to CUB2 was measured on a ProteOn® XPR36 (BioRad) in 10 mM Tris/HCl pH 7.4, containing 140 mM NaCl, 5 mM Ca^2+ and 0.005% Tween-20 at 25° C., at a flow rate of 25 μL/min. For inhibition assays, MBL was immobilized on to a CM-5 sensor chip (14,000 response units) and binding was measured on a Biacore® 2000 (GE Healthcare) in 20 mM Tris/HCl pH 7.4, containing 140 mM NaCl, 5 mM Ca^2+, and 0.005% SP-20. MASP-1 (100 nM) was premixed with inhibitor and flowed over the chip surface at a rate of 5 μL/min at 25° C. Changes in response units caused by differences in sample composition were subtracted from all data. To account for changes in ionic strength of the buffer due to the inhibitor, binding was measured in the presence of equivalent concentrations of NaCl.
Background: In SPR one partner is held on a chip, and binding of the other changes the refractive index at the surface.

In experiment [2] the test system is lectin pathway complement activation. The experiment can be described thus: Lectin pathway specific complement activation (Wieslab MBL pathway kit, membrane-attack complex deposition on mannan-coated plates). In kind it is biochemical. Conditions: three independent experiments, read-out: IC50, inhibition of lectin pathway complement activation. As for the experimental part:
Lectin pathway specific complement activation was measured using the Wieslab® MBL pathway kit (Euro-Diagnostica), which measures deposition of the membrane attack complexes on a mannan-coated plate. The lectin pathway is functional, even under conditions of high ionic strength (1M NaCl). (Petersen et al., J Immunol Methods 257:107-116 (2001)).

Another experiment deals with MBL (Rattus norvegicus, UniProt P19999). Conditions: read-out: Affinity of full-size MASP-1 binding to MBL; cited from earlier work.

On to `[Ca+2].[Cl-].[Cl-]` [Ca^2+, CaCl2], for which the Kd at MASP-1 CUB2 (single Ca2+ site model, 25° C.) was 0.49 mM and 0.5 mM. At MASP-1 CUB2, the “ΔH of Ca2+ binding to MASP-1 CUB2” value is -1.1 ± 0.14 kcal/mol.
`[Cl-].[Na+]` [NaCl]: in experiment [1] (ionic strength control, all NaCl concentrations tested (up to 550 mM)), the “Binding of MASP-1 to MBL, % of maximal” value is on record as more than 60%.
Turning to `CCN` [ethylamine], the “Inhibition of MBL/MASP-1 binding (in words)” value in experiment [1] is recorded as “inhibitors”.
As a reminder, the IC50 is the concentration needed to halve the response being measured. Consider `NCCCC[C@H](N)C(=O)O` [lysine], for which the half-maximal inhibitory concentration (IC50) in experiment [1] (SPR, MASP-1 100 nM premixed with inhibitor, 25° C., three independent experiments) is 49 mM and ~50 mM; in experiment [2], 25 mM and ~25 mM.
In the case of `CN` [methylamine], the “Inhibition of MBL/MASP-1 binding (in words)” value in experiment [1] was “inhibitors”.

B1: MASP-1: full-size MBL-associated serine protease 1 (protein, UniProt Q8CHN8 1-704, looked up)
chain: MRFLSFRRLLLYHVLCLTLTEVSAHTVELNEMFGQIQSPGYPDSYPSDSEVTWNITVPEGFRVQLYFMHFNLESSYLCEYDYVKVETEDQVLATFCGRETTDTEQTPGQEVVLSPGSFMSVTFRSDFSNEERFTGFDAHYMAVDVDECKEREDEELSCDHYCHNYIGGYYCSCRFGYILHTDNRTCRVECSGNLFTQRTGTITSPDYPNPYPKSSECSYTIDLEEGFMVTLQFEDIFDIEDHPEVPCPYDYIKIKAGSKVWGPFCGEKSPEPISTQSHSIQILFRSDNSGENRGWRLSYRAAGNECPKLQPPVYGKIEPSQAVYSFKDQVLISCDTGYKVLKDNEVMDTFQIECLKDGAWSNKIPTCKIVDCGVPAVLKHGLVTFSTRNNLTTYKSEIRYSCQQPYYKMLHNTTGVYTCSAHGTWTNEVLKRSLPTCLPVCGLPKFSRKHISRIFNGRPAQKGTTPWIAMLSQLNGQPFCGGSLLGSNWVLTAAHCLHHPLDPEEPILHNSHLLSPSDFKIIMGKHWRRRSDEDEQHLHVKHIMLHPLYNPSTFENDLGLVELSESPRLNDFVMPVCLPEHPSTEGTMVIVSGWGKQFLQRLPENLMEIEIPIVNYHTCQEAYTPLGKKVTQDMICAGEKEGGKDACAGDSGGPMVTKDAERDQWYLVGVVSWGEDCGKKDRYGVYSYIYPNKDWIQRVTGVRN
modifications: full-length
In the case of B1, the Kd with MBL was 10 to 100 nM.
